{"source": "patent US6348309B1", "about": "“Process for inactivating viruses in blood and blood products” (priority 1989, dated 2002)", "key": {"[1]": {"system": "vesicular stomatitis virus (VSV)", "type": "cell-based"}, "[2]": {"system": "VSV", "type": "cell-based, vesicular stomatitis virus"}, "[3]": {"system": "West Nile", "assay": "MB/light virus inactivation in plasma (Example 6, Table VI)", "type": "cell-based", "details": "illumination 60 min"}, "[4]": {"system": "Calici", "type": "cell-based"}, "[5]": {"system": "adeno-virus", "assay": "Photodynamic treatment of adenovirus with freeze/thaw step (Example 8)", "type": "cell-based"}, "[6]": {"system": "Semliki Forest", "type": "cell-based"}, "[7]": {"details": "1 to 2 mg/kg of body weight; cited from earlier work"}, "[8]": {"target": "T1, coagulation factor VIII (Homo sapiens, UniProt P00451)", "T1 construct": "Varying amounts of MB were added to human plasma (2 ml aliquots); from tissue; host or cells: human plasma", "T1 sequence (P00451 20-1332 limits assumed)": "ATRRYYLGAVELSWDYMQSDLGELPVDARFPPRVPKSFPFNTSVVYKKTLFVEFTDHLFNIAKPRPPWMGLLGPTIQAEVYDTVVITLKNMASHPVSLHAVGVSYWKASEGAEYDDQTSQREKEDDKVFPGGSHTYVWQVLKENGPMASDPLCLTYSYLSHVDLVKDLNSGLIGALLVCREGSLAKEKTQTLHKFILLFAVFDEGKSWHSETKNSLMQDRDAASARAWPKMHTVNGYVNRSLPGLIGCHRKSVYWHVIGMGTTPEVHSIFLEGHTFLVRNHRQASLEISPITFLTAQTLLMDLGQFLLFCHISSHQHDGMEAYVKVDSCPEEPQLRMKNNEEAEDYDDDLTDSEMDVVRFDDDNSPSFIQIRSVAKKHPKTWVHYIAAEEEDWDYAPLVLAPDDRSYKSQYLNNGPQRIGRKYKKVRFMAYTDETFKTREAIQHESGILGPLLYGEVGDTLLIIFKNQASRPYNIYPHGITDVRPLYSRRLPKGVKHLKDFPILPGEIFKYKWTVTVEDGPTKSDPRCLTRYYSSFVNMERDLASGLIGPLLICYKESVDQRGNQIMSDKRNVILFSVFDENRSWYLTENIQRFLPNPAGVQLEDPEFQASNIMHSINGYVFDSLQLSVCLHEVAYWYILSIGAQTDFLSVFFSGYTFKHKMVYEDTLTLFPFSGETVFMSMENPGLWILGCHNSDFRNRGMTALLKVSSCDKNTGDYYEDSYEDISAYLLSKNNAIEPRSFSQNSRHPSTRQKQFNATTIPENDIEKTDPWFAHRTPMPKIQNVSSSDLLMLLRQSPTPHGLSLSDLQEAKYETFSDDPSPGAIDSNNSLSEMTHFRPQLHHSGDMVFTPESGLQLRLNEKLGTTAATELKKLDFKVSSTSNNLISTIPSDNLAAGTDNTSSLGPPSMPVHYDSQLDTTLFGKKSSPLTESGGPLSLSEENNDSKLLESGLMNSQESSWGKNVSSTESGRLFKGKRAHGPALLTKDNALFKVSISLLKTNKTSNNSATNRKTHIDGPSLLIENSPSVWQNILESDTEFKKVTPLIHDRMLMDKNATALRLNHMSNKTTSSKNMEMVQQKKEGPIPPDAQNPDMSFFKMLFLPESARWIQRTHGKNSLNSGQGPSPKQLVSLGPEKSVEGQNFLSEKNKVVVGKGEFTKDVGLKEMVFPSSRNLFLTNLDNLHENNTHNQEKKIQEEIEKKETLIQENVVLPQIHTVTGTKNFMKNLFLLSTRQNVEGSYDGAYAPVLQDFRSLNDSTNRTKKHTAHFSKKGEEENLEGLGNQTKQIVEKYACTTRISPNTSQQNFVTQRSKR", "T1 sequence (P00451 1668-2351 limits assumed)": "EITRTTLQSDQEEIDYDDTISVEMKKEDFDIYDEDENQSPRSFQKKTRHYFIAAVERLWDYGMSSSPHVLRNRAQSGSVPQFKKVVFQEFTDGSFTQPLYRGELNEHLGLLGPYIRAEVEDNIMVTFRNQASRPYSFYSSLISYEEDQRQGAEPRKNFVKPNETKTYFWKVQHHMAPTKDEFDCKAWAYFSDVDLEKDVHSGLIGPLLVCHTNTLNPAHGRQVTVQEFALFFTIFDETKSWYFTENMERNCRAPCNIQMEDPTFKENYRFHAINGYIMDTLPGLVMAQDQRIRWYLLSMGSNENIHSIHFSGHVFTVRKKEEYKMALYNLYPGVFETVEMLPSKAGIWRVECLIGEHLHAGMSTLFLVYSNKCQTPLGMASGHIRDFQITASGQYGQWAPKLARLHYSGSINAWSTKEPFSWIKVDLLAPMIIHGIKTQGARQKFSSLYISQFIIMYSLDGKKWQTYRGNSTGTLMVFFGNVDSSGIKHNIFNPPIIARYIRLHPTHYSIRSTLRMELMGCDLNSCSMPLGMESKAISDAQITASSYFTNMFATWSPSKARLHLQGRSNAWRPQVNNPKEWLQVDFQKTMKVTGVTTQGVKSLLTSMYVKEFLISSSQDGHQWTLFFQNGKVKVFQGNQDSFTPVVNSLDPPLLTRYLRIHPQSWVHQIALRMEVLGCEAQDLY", "assay": "Coagulation factor activity in human plasma right after MB addition (Example 9)", "type": "biochemical", "details": "no light"}, "[9]": {"system": "Herpes Simplex", "assay": "MB/light virus inactivation in plasma (Example 6, Table VI)", "type": "cell-based", "details": "illumination 60 min; * production conditions, plastic bag 250-300 ml plasma"}}, "note": "Marks after values point to notes of the source that are not given here.", "data": [{"smiles": "CN(C)c1ccc2nc3ccc(=[N+](C)C)cc-3sc2c1", "note": "[MB, methylene blue]", "values": [{"measurement": "reduction of infectious titer of VSV by irradiation", "setting": "[1]", "value": "more than 6 log10"}, {"measurement": "reduction of infectious VSV titer", "setting": "[2]", "value": "more than 6 log10"}, {"measurement": "Inactivation Rate", "setting": "[3]", "value": ">6.50", "unit": "log10 TCID50"}, {"measurement": "Inactivation Rate", "setting": "[4]", "value": ">3.9 * log10 TCID50"}, {"measurement": "Virus Titer", "setting": "[5]; Sample C: F/T + MB + 60 min pre-incubation + 60 min irradiation", "value": 2.5, "unit": "Log10 TCID50"}, {"measurement": "Virus Titer", "setting": "[5]; Sample D: MB + F/T, no irradiation", "value": 7.5, "unit": "Log10 TCID50"}, {"measurement": "Virus Titer", "setting": "[5]; Sample E: MB + F/T + 10 min irradiation", "value": 5.0, "unit": "Log10 TCID50"}, {"measurement": "Virus Titer", "setting": "[5]; Sample F: MB + F/T + 30 min irradiation", "value": 5.0, "unit": "Log10 TCID50"}, {"measurement": "Virus Titer", "setting": "[5]; Sample G: MB + F/T + 60 min irradiation", "value": 4.0, "unit": "Log10 TCID50"}, {"measurement": "Inactivation Rate", "setting": "[6]", "value": ">7.00", "unit": "log10 TCID50"}, {"measurement": "side effects in therapeutic use", "setting": "[7]", "value": "without any significant side effects"}, {"measurement": "Factor VIII", "setting": "[8]; Methylene Blue 1 μM", "value": 0.41, "unit": "E/ml"}, {"measurement": "Factor VIII", "setting": "[8]; Methylene Blue 2.5 μM", "value": 0.41, "unit": "E/ml"}, {"measurement": "Factor VIII", "setting": "[8]; Methylene Blue 5 μM", "value": 0.38, "unit": "E/ml"}, {"measurement": "Factor VIII", "setting": "[8]; Methylene Blue 10 μM", "value": 0.35, "unit": "E/ml"}, {"measurement": "Factor VIII", "setting": "[8]; Methylene Blue 20 μM", "value": 0.28, "unit": "E/ml"}, {"measurement": "MB concentration from which factor VIII activity is inhibited", "setting": "[8]", "value": "about 10 μM"}, {"measurement": "Inactivation Rate", "setting": "[9]", "value": ">5.50 * log10 TCID50"}]}]}
